In publication PMC7038073, “Substituted Piperazines as Novel Potential Radioprotective Agents” (Molecules, 2020):
Several values for one entry are separate records, joined by “and”; a condition that tells them apart may be missing. Identical values can stand only once.

How the values were obtained:
BALB/c mice = assay: Safe use evaluation in vivo (MTD, symptoms, blood biochemistry, histopathology); set-up: key to piloerection / ataxia / prostration / tremor / excitation / saber-like tail / stooping / hyper/hypoventilation / drop of eyelids / lacrimation / convulsion: + (mild); ++ (moderate); +++ (severe); details: animals 1 and 2; for ALP / ALT / AST / Amylase / Creatinine / Glucose / Urea: plasma 48 h after MTD i.p.
Source text: (§1) Mild to moderate signs of intoxication could be observed once the MTD (maximum tolerated dose) was reached. In vivo, MTD is described as the highest dose of a given compound that can be administered before showing signs of toxicity (based on the same dose regimen or series) and whose excess would be expected to be fatal, yielding unreliable results. Therefore, a staged approach (including core and intermediate dose levels) has become a suitable strategy in this regard.
(§2) The symptoms described in Tables S1 (in Supplementary Materials) and S2 (in Supplementary Materials) diminished spontaneously within 2 h. After observing these symptoms, MTD thresholds were set at 100, 200, 100, 200, 2000, and 650 mg/kg for compounds 4, 5, 6, 7, 8, and 10, respectively. Animals receiving MTD were further examined by necropsy 48 h after administration. Plasma (reflecting biochemical changes in blood), intestine with mesentery (site of administration), and liver and kidney (elimination organs) were collected to evaluate the toxic potential of the tested compounds. For evaluation of the impact of the compounds on organ function, we performed blood biochemistry test 48 h after administration. The test focused on seven important indicators: glucose and amylase for normal function of pancreas, alanine aminotransferase (ALT), aspartate aminotransferase (AST), and alkaline phosphatase (ALP) for the normal function of liver, and urea and creatinine for the normal function of kidneys. […] According to Thoolen et al., focal necrosis can be occasionally seen in untreated rodents and therefore is not pathognomonic of hepatotoxicity, which is consistent with our findings.
(§3) Both male and female BALB/c mice (Velaz s r.o., Prague, Czech Republic) with an average weight of 21 ± 0.8 g and 21 ± 0.8 g, respectively, were selected for the safe use evaluation in vivo. The mice were housed in environmentally controlled breeding units (Faculty of Military Health Sciences vivarium; temperature 21 ± 1 °C, 12/12 h light/dark cycle) with access to food (Cerea corp., Pardubice, Czech Republic) and water ad libitum. The acclimatization period of the mice was at least 10 days before each experiment. All experimental procedures and protocols were reviewed and approved by the Ethics Committee of the Faculty of Military Health Sciences in Hradec Kralove, University of Defence in Brno. Compounds 2, 3, 4, 5, 6, 7, 8, 9, and 10 were dissolved in physiological saline solution (B. Braun Melsungen AG, Melsungen, Germany) and injected intraperitoneally (i.p.) into the corresponding mouse groups, which were composed of two males and two females. Several doses were administered to determine the maximum tolerated dose (MTD), which was assessed by close observation for signs of toxicity within the first two hours after administration of the compounds, and then regularly over the following 48 h. The observed symptoms were registered according to the laboratory Animal Science Association UK guidelines (for a detailed description, see [36]. After 48 h, the surviving animals were euthanized with CO2 and evaluated by basic macroscopic necropsy. Venous blood was collected into heparinized tubes (Scanlab Systems, Prague, Czech Republic) and the plasma was separated in a U-320R centrifuge (Boeco, Hamburg, Germany) to further evaluate the toxic potential of the tested compounds. The concentrations of glucose, urea, and creatinine and the levels of alanine aminotransferase (ALT), aspartate aminotransferase (AST), alkaline phosphatase (ALP), and amylase were evaluated in a qualified biochemical laboratory of the University Hospital Hradec Kralove (Hradec Kralove, Czech Republic). Additionally, intestine, liver, and kidney samples were collected for histopathologic examination. […]

[1] = as above; set-up: key to piloerection / ataxia / prostration / tremor / excitation / saber-like tail / stooping / hyper/hypoventilation / drop of eyelids / lacrimation / convulsion: + (mild); ++ (moderate); +++ (severe); details: both sexes, mouse, in vivo, ip; BALB/c mice, i.p., two males and two females per group; read-out: MTD (maximum tolerated dose)
Source text: as §1, §2, §3

[2] = WST-1 cytotoxicity test, PANC-1; assay type: cell-based; details: human, PANC-1 cells, 48 h, WST-1, mean ± SD of three experiments, read-out: relative viability (%) compared to untreated control; for viability at 48 h, 10 µM: PANC-1, 10 µM; for viability at 48 h, 100 µM: PANC-1, 100 µM
Experimental: (§4) In this study, the cytotoxic effects of nine new compounds (2, 3, 4, 5, 6, 7, 8, 9, 10) were tested on 10 human cell lines (nine cancer and one non-cancer cell line). The cell lines were treated with each compound at concentrations of 10 µM and 100 µM for 48 h. The proliferation capacity of the treated cells was determined by WST-1 test and compared against the proliferation rate of the untreated control cells (100%).
(§5) The cell lines Jurkat, MOLT-4, A2780, A549, HT-29, PANC-1, HeLa, MCF-7, SAOS-2, and MRC-5 (all purchased from Sigma Aldrich, Czech Republic) were included in this study. All cell lines were maintained according to the provider’s guidelines, and plated and treated in 96-well plates (500 to 30 × 10^3 cells per well). The tested compounds 2, 3, 4, 5, 6, 7, 8, 9, and 10 were dissolved in 0.1% DMSO and kept in 10 mM stock solutions. Before use, the stock solution was diluted in culture media at ratios of 1:100 and 1:1000. The studied cell lines were treated with the compounds 2, 3, 4, 5, 6, 7, 8, 9, and 10 at concentrations of 10 and 100 µM for 48 h. Control cells were tested in culture media with and without DMSO (0.1%). The cells were also treated with 1 µM doxorubicin as a cytotoxicity control.
(§6) The WST-1 (2-(4-iodophenyl)-3-(4-nitrophenyl)-5-(2,4-disulfophenyl)-2H-tetrazolium, monosodium salt) test (Roche, Mannheim, Germany) was used according to the manufacturer’s protocol to determine cell viability in all 10 cell lines 48 h after treatment with the tested compounds. The cells were analyzed in a Tecan Infinite M200 spectrometer (Tecan Group, Männedorf, Switzerland) at 440 nm.

[3] = WST-1 cytotoxicity test, HT-29; assay type: cell-based; details: human, HT-29 cells, 48 h, WST-1, mean ± SD of three experiments, read-out: relative viability (%) compared to untreated control; for viability at 48 h, 10 µM: HT-29, 10 µM; for viability at 48 h, 100 µM: HT-29, 100 µM
Experimental: as §4, §5, §6

Compound | ALT (BALB/c mice; female BALB/c mice) | AST (BALB/c mice; female BALB/c mice) | Amylase (BALB/c mice; female BALB/c mice) | Glucose (BALB/c mice; female BALB/c mice) | Urea (BALB/c mice; female BALB/c mice) | drop of eyelids (BALB/c mice; female mice, at MTD i.p.) | hyper/hypoventilation (BALB/c mice; female mice, at MTD i.p.) | prostration (BALB/c mice; female mice, at MTD i.p.) | ALP (BALB/c mice; male BALB/c mice) | ALT (BALB/c mice; male BALB/c mice) | AST (BALB/c mice; male BALB/c mice) | Amylase (BALB/c mice; male BALB/c mice) | Creatinine (BALB/c mice; male BALB/c mice) | Glucose (BALB/c mice; male BALB/c mice) | Urea (BALB/c mice; male BALB/c mice) | drop of eyelids (BALB/c mice; male mice, at MTD i.p.) | viability at 48 h, 10 µM [2] [%] | viability at 48 h, 100 µM [2] [%] | viability at 48 h, 10 µM [3] [%] | viability at 48 h, 100 µM [3] [%] | further results
Cl.Cl.Cl.OCCN1CCN(CCCNc2cccc3ccccc23)CC1 [Compound 6, 2-(4-(3-(naphthalen-1-ylamino)propyl)piperazin-1-yl)ethanol trihydrochloride] | 29 U/L and 27 U/L | 53 U/L and 50 U/L | 2922 U/L and 2835 U/L | 199 mg/dL and 212 mg/dL | 65 mg/dL and 55 mg/dL | + | ++ | + | 38 U/L and 36 U/L | 28 U/L and 25 U/L | 64 U/L and 62 U/L | 2124 U/L and 2086 U/L | 45 µg/dL and 23 µg/dL | 130 mg/dL and 177 mg/dL | 42 mg/dL and 35 mg/dL | + | 92 ± 11 | 111 ± 5 | 86 ± 4 | 97 ± 4 | ALP (BALB/c mice; female BALB/c mice): 86 U/L and 95 U/L; Creatinine (BALB/c mice; female BALB/c mice): 22 µg/dL and 34 µg/dL; ataxia (BALB/c mice; female mice, at MTD i.p.): ++; stooping (BALB/c mice; female mice, at MTD i.p.): ++; ataxia (BALB/c mice; male mice, at MTD i.p.): +; hyper/hypoventilation (BALB/c mice; male mice, at MTD i.p.): ++; piloerection (BALB/c mice; male mice, at MTD i.p.): +; prostration (BALB/c mice; male mice, at MTD i.p.): +; stooping (BALB/c mice; male mice, at MTD i.p.): ++; tremor (BALB/c mice; male mice, at MTD i.p.): +; weight at 48 h (%) (BALB/c mice; male mice, at MTD i.p.): -2.3% and -3.0%; MTD at 48 h [1]: 100 mg/kg
COc1ccc(NCCCN2CCN(CCO)CC2)cc1.Cl.Cl.Cl [Compound 7, 2-(4-(3-((4-methoxyphenyl)amino)propyl)piperazin-1-yl)ethanol trihydrochloride] | 22 U/L and 33 U/L | 52 U/L and 71 U/L | 2501 U/L and 1496 U/L | 241 mg/dL and 178 mg/dL | 40 mg/dL | + | ++ | + | 78 U/L and 55 U/L | 19 U/L and 29 U/L | 48 U/L and 66 U/L | 2272 U/L and 1858 U/L | 23 µg/dL and 34 µg/dL | 244 mg/dL and 194 mg/dL | 35 mg/dL and 38 mg/dL | + | 99 ± 10 | 116 ± 3 | 96 ± 3 | 118 ± 2 | tremor (BALB/c mice; female mice, at MTD i.p.): ++; hyper/hypoventilation (BALB/c mice; male mice, at MTD i.p.): ++; prostration (BALB/c mice; male mice, at MTD i.p.): ++; tremor (BALB/c mice; male mice, at MTD i.p.): ++; weight at 24 h (%) (BALB/c mice; male mice, at MTD i.p.): -0.3% and -1.5%; weight at 48 h (%) (BALB/c mice; male mice, at MTD i.p.): 0.0% and -3.7%; MTD at 48 h [1]: 200 mg/kg
Cl.Cl.OC(CNc1ccccc1)CNc1ccccc1 [Compound 9, 1,3-bis(phenylamino)propan-2-ol dihydrochloride] | – | – | – | – | – | – | – | – | – | – | – | – | – | – | – | – | 93 ± 12 | 118 ± 5 | 102 ± 5 | 148 ± 2 | –
